{
  "source": "patent US6914045B2",
  "about": "“Glycopeptide antibiotics” (Wyeth Holdings Corporation, priority 2001, dated 2005)",
  "test_in_all_cases": "in vitro antibacterial evaluation, MIC by broth dilution",
  "assay_type_in_all_cases": "cell-based",
  "key": {"Enterococcus sp.": {"tested_on": "Enterococcus sp.", "details": "broth dilution, 18 hours at 35° C.", "in_short": "(§1)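 Following National Committee for Clinical Laboratory Standards recommendations (M7-A2), susceptibility was measured by dilution in Muller-Hinton II […]. Bacteria were seeded at 5×10^5 CFU/mL against compound concentrations from 64 down to 0.06 μg/mL.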"}, "Streptococcus sp.": {"tested_on": "Streptococcus sp.", "details": "broth dilution, 18 hours at 35° C.", "in_short": "as §1"}, "Escherichia coli": {"tested_on": "Escherichia coli", "in_short": "as §1"}, "Staphylococcus sp.": {"tested_on": "Staphylococcus sp.", "details": "broth dilution, 18 hours at 35° C.; for MIC Staphylococcus aureus (GC 1131): strain GC 1131", "in_short": "as §1"}},
  "data": [
    {"smiles": "CC(c1ccccc1)C1NC(=O)CNC(=O)C(CO)NC(=O)C(C(O)C2CNC(=N)N2C2OC(CO)C(O)C(O)C2O)NC(=O)C(C(O)C2CNC(=N)N2)NC(=O)C(Cc2ccc(OC3OC(CO)C(OC4OC5COC(c6ccc7ccccc7c6)OC5C(O)C4O)C(O)C3O)cc2)NC1=O", "note": "(stereo not drawn) [Example 145]", "values": [
      {"measurement": "MIC Enterococcus avium (GC 4558)", "setting": "Enterococcus sp.; Enterococcus avium (GC 4558)", "value": 1, "unit": "µg/mL"},
      {"measurement": "MIC Enterococcus faecalis (ATCC 29212)", "setting": "Enterococcus sp.; Enterococcus faecalis (ATCC 29212)", "value": 1, "unit": "µg/mL"},
      {"measurement": "MIC Enterococcus faecalis (GC 2242)", "setting": "Enterococcus sp.; Enterococcus faecalis (GC 2242)", "value": "<0.5", "unit": "µg/mL"},
      {"measurement": "MIC Enterococcus faecalis (GC 2691)", "setting": "Enterococcus sp.; Enterococcus faecalis (GC 2691)", "value": 1, "unit": "µg/mL"},
      {"measurement": "MIC Enterococcus faecalis (GC 3059)", "setting": "Enterococcus sp.; Enterococcus faecalis (GC 3059)", "value": 1, "unit": "µg/mL"},
      {"measurement": "MIC Enterococcus faecalis (GC 4552)", "setting": "Enterococcus sp.; Enterococcus faecalis (GC 4552)", "value": 1, "unit": "µg/mL"},
      {"measurement": "MIC Enterococcus faecalis (GC 4553)", "setting": "Enterococcus sp.; Enterococcus faecalis (GC 4553)", "value": 2, "unit": "µg/mL"},
      {"measurement": "MIC Enterococcus faecalis (GC 4554)", "setting": "Enterococcus sp.; Enterococcus faecalis (GC 4554)", "value": 1, "unit": "µg/mL"},
      {"measurement": "MIC Enterococcus faecalis (GC 6189)", "setting": "Enterococcus sp.; Enterococcus faecalis (GC 6189)", "value": 1, "unit": "µg/mL"},
      {"measurement": "MIC Enterococcus faecium (GC 2243)", "setting": "Enterococcus sp.; Enterococcus faecium (GC 2243)", "value": 1, "unit": "µg/mL"},
      {"measurement": "MIC Enterococcus faecium (GC 4556)", "setting": "Enterococcus sp.; Enterococcus faecium (GC 4556)", "value": 1, "unit": "µg/mL"},
      {"measurement": "MIC Enterococcus faecium (GC 4557)", "setting": "Enterococcus sp.; Enterococcus faecium (GC 4557)", "value": 1, "unit": "µg/mL"},
      {"measurement": "MIC Enterococcus faecalis (ATCC 29212)", "setting": "Enterococcus sp.; strain ATCC 29212", "value": 1, "unit": "µg/mL"},
      {"measurement": "MIC Enterococcus faecalis (GC 2242)", "setting": "Enterococcus sp.; strain GC 2242", "value": "<0.5", "unit": "µg/mL"},
      {"measurement": "MIC Enterococcus faecium (GC 2243)", "setting": "Enterococcus sp.; strain GC 2243", "value": 1, "unit": "µg/mL"},
      {"measurement": "MIC Enterococcus faecalis (GC 2691)", "setting": "Enterococcus sp.; strain GC 2691", "value": 1, "unit": "µg/mL"},
      {"measurement": "MIC Enterococcus faecalis (GC 3059)", "setting": "Enterococcus sp.; strain GC 3059", "value": 1, "unit": "µg/mL"},
      {"measurement": "MIC Enterococcus faecalis (GC 4552)", "setting": "Enterococcus sp.; strain GC 4552", "value": 1, "unit": "µg/mL"},
      {"measurement": "MIC Enterococcus faecalis (GC 4553)", "setting": "Enterococcus sp.; strain GC 4553", "value": 2, "unit": "µg/mL"},
      {"measurement": "MIC Enterococcus faecalis (GC 4554)", "setting": "Enterococcus sp.; strain GC 4554", "value": 1, "unit": "µg/mL"},
      {"measurement": "MIC Enterococcus faecium (GC 4556)", "setting": "Enterococcus sp.; strain GC 4556", "value": 1, "unit": "µg/mL"},
      {"measurement": "MIC Enterococcus faecium (GC 4557)", "setting": "Enterococcus sp.; strain GC 4557", "value": 1, "unit": "µg/mL"},
      {"measurement": "MIC Enterococcus avium (GC 4558)", "setting": "Enterococcus sp.; strain GC 4558", "value": 1, "unit": "µg/mL"},
      {"measurement": "MIC Enterococcus faecalis (GC 6189)", "setting": "Enterococcus sp.; strain GC 6189", "value": 1, "unit": "µg/mL"},
      {"measurement": "MIC Streptococcus agalactiae (GC 4564)", "setting": "Streptococcus sp.; Streptococcus agalactiae (GC 4564)", "value": "<0.5", "unit": "µg/mL"},
      {"measurement": "MIC Streptococcus pneumoniae (ATCC 6301)", "setting": "Streptococcus sp.; Streptococcus pneumoniae (ATCC 6301)", "value": "<0.5", "unit": "µg/mL"},
      {"measurement": "MIC Streptococcus pneumoniae (GC 1894)", "setting": "Streptococcus sp.; Streptococcus pneumoniae (GC 1894)", "value": "<0.5", "unit": "µg/mL"},
      {"measurement": "MIC Streptococcus pneumoniae (GC 4565)", "setting": "Streptococcus sp.; Streptococcus pneumoniae (GC 4565)", "value": "<0.5", "unit": "µg/mL"},
      {"measurement": "MIC Streptococcus pyogenes (GC 4563)", "setting": "Streptococcus sp.; Streptococcus pyogenes (GC 4563)", "value": 1, "unit": "µg/mL"},
      {"measurement": "MIC Streptococcus pneumoniae (ATCC 6301)", "setting": "Streptococcus sp.; strain ATCC 6301", "value": "<0.5", "unit": "µg/mL"},
      {"measurement": "MIC Streptococcus pneumoniae (GC 1894)", "setting": "Streptococcus sp.; strain GC 1894", "value": "<0.5", "unit": "µg/mL"},
      {"measurement": "MIC Streptococcus pyogenes (GC 4563)", "setting": "Streptococcus sp.; strain GC 4563", "value": 1, "unit": "µg/mL"},
      {"measurement": "MIC Streptococcus agalactiae (GC 4564)", "setting": "Streptococcus sp.; strain GC 4564", "value": "<0.5", "unit": "µg/mL"},
      {"measurement": "MIC Streptococcus pneumoniae (GC 4565)", "setting": "Streptococcus sp.; strain GC 4565", "value": "<0.5", "unit": "µg/mL"},
      {"measurement": "MIC Escherichia coli (ATCC 25922)", "setting": "Escherichia coli; strain ATCC 25922, 18 hours at 35° C.", "value": 64, "unit": "µg/mL"},
      {"measurement": "MIC Escherichia coli (GC 4559)", "setting": "Escherichia coli; strain GC 4559, 18 hours at 35° C.", "value": 32, "unit": "µg/mL"},
      {"measurement": "MIC Escherichia coli (GC 4560)", "setting": "Escherichia coli; strain GC 4560, 18 hours at 35° C.", "value": "<0.5", "unit": "µg/mL"},
      {"measurement": "MIC Staphylococcus aureus (GC 1131)", "setting": "Staphylococcus sp.; inoculum 5×10^5 CFU/mL", "value": "<0.5", "unit": "µg/mL"},
      {"measurement": "MIC Staphylococcus aureus (ATCC 29213)", "setting": "Staphylococcus sp.; strain ATCC 29213", "value": 1, "unit": "µg/mL"},
      {"measurement": "MIC Staphylococcus aureus (GC 1131)", "setting": "Staphylococcus sp.", "value": "<0.5", "unit": "µg/mL"},
      {"measurement": "MIC Staphylococcus aureus (GC 3051)", "setting": "Staphylococcus sp.; strain GC 3051", "value": 1, "unit": "µg/mL"},
      {"measurement": "MIC Staphylococcus aureus (GC 3053)", "setting": "Staphylococcus sp.; strain GC 3053", "value": 1, "unit": "µg/mL"},
      {"measurement": "MIC Staphylococcus aureus (GC 4541)", "setting": "Staphylococcus sp.; strain GC 4541", "value": "<0.5", "unit": "µg/mL"},
      {"measurement": "MIC Staphylococcus aureus (GC 4542)", "setting": "Staphylococcus sp.; strain GC 4542", "value": "<0.5", "unit": "µg/mL"},
      {"measurement": "MIC Staphylococcus aureus-SMITH (GC 4543)", "setting": "Staphylococcus sp.; strain GC 4543", "value": "<0.5", "unit": "µg/mL"},
      {"measurement": "MIC Staphylococcus aureus (GC 4544)", "setting": "Staphylococcus sp.; strain GC 4544", "value": 1, "unit": "µg/mL"},
      {"measurement": "MIC Staphylococcus aureus (GC 4545)", "setting": "Staphylococcus sp.; strain GC 4545", "value": 1, "unit": "µg/mL"},
      {"measurement": "MIC Staphylococcus haemolyticus (GC 4546)", "setting": "Staphylococcus sp.; strain GC 4546", "value": "<0.5", "unit": "µg/mL"},
      {"measurement": "MIC Coagulase Negative Staphylococcus (GC 4547)", "setting": "Staphylococcus sp.; strain GC 4547", "value": 1, "unit": "µg/mL"},
      {"measurement": "MIC Coagulase Negative Staphylococcus (GC 4548)", "setting": "Staphylococcus sp.; strain GC 4548", "value": "<0.5", "unit": "µg/mL"},
      {"measurement": "MIC Coagulase Negative Staphylococcus (GC 4549)", "setting": "Staphylococcus sp.; strain GC 4549", "value": 1, "unit": "µg/mL"},
      {"measurement": "MIC Coagulase Negative Staphylococcus (GC 4551)", "setting": "Staphylococcus sp.; strain GC 4551", "value": "<0.5", "unit": "µg/mL"},
      {"measurement": "MIC Coagulase Negative Staphylococcus (GC 6257)", "setting": "Staphylococcus sp.; strain GC 6257", "value": 0.5, "unit": "µg/mL"},
      {"measurement": "MIC Staphylococcus aureus-SMITH (GC 4543)", "setting": "Staphylococcus sp.; strain SMITH GC 4543", "value": "<0.5", "unit": "µg/mL"}
    ]}
  ]
}
